For data set [1] the following is noted: ICR, mouse, in vivo, ip.
A further data set concerns PC-3 xenograft. Description: In vivo PC-3 prostate tumor xenograft.
Data set [2] is described as follows: Rotarod test (in vivo neurotoxicity). Conditions: ICR mice, i.p. daily; 1h 5 or 15 mg/kg, vinblastine 0.5 mg/kg. Further details: species or system mouse. On the procedure:
ICR mice received training three times a day for two days to enable them to stay on the rotating rod for >120 seconds at 12 rpm. Mice were then randomized by the length of time that they could stay on the rotating rod and divided into 7-8 mice per group. […] The rotarod test was performed twice a week. […] The rod speed was increased from […] to 40 rpm over a period of 5 min. Performance was measured as the length of time that a mouse could stay on the rotating rod.

The subject of another data set is Bovine brain tubulin. Briefly: In vitro tubulin polymerization assay (bovine brain tubulin). It is filed as biochemical. Conditions: 10 μM. On the procedure:
The spectrophotometer was maintained at 37° C. for tubulin polymerization.

The subject of data set [3] is PC-3 human prostate cancer cell line. Briefly: cells. Conditions: Homo sapiens. An excerpt: (§1) Cells were stained with SRB solution.
The test system of data set [4] is tubulin (colchicine, vinblastine and paclitaxel binding sites). Briefly: MS competition binding assay. Particulars: competitive mass binding assay. An excerpt: Each reaction was run in triplicate.
Data set [5] relates to NCI/ADR-RES (P-gp over-expressing resistant line of OVCAR-8). Briefly: Cytotoxicity (SRB) assay, NCI/ADR-RES. The class given is cell-based, human. Conditions: NCI/ADR-RES versus OVCAR-8.
For data set [6], the system named is melanoma and prostate cancer cell lines. Description: Antiproliferative activity summarised over the cell line panel (range or average). Conditions: read-out: IC50 (range over tested cell lines). It is filed as cell-based.
A further data set in a line: in vivo. Conditions: male, ICR, mouse, plasma, iv, 15 mg/kg.
The subject of data set [7] is PC-3 cells. Briefly: Apoptosis detection by ELISA (cytoplasmic DNA-histone complexes), PC-3. The class given is cell-based, human. Particulars: PC-3 and A375 cells, 24 h. An excerpt:
Quantification of the Enrichment of Mono- and oligonucleosomes in the cytoplasm was used to determine the ability of the compounds to induce apoptosis (cell death detection ELISA PLUS, Roche, Germany) following the manufacturer's instructions.

Data set [8] in a line: Aqueous solubility, Multiscreen Solubility Filter Plate, PBS pH 7.4.
The test system of data set [9] is A375 human melanoma cell line. Briefly: Cytotoxicity (SRB) assay, A375. Conditions: Homo sapiens, A-375, SRB assay, human melanoma A375; read-out: IC50 A375. It is filed as cell-based.
The test system of data set [10] is LNCaP human prostate cancer cell line. Briefly: Cytotoxicity (SRB) assay, LNCaP. The class given is cell-based. Conditions: Homo sapiens, LNCaP, SRB assay, prostate cancer LNCaP; read-out: IC50 LNCaP.
Excerpt: as §1

The subject of data set [11] is DU 145 human prostate cancer cell line. Briefly: Cytotoxicity (SRB) assay, DU 145. The class given is cell-based. Conditions: Homo sapiens, DU-145, SRB assay, prostate cancer DU 145; read-out: IC50 DU 145.
Excerpt: as §1

For data set [12], the system named is PPC-1 human prostate cancer cell line. Briefly: Cytotoxicity (SRB) assay, PPC-1. It is filed as cell-based. Conditions: Homo sapiens, PPC-1, SRB assay, prostate cancer PPC-1; read-out: IC50 PPC-1.
Excerpt: as §1

Data set [13] relates to B16-F1 mouse melanoma cell line. Description: Cytotoxicity (SRB) assay, B16-F1. It is filed as cell-based. Particulars: Mus musculus, B16-F1, SRB assay, mouse melanoma B16-F1; read-out: IC50 B16-F1.
The nature of data set [14]: Pharmacokinetic study in Sprague-Dawley rats. Conditions: rat.
The test system of data set [15] is PC-3 cells. Briefly: Cell cycle analysis (PI staining, FACS), PC-3. Conditions: Homo sapiens, read-out: G2M phase arrest EC50. The class given is cell-based. On the procedure: Cell cycle distribution was determined by propidium iodide (PI) staining. Treated cells were washed with PBS and fixed with 70% ice-cold ethanol overnight. Fixed cells were then stained with 20 μg/mL of PI in the presence of RNase A (300 μg/mL) at 37° C. for 30 min. Cell cycle distribution was analyzed by fluorescence-activated cell sorting (FACS) analysis core services at the University of Tennessee Health Science Center, TN.
Flow cytometry was performed to study the effects of the compounds on cell cycle distribution. […] Cellular DNA was stained with 100 μg/mL propidium iodide and 100 μg/mL RNase A in PBS and flow cytometry was performed to determine the cell cycle distribution of the cells.

The subject of data set [16] is T1, tubulin colchicine binding site.
T1 construct: […]
Briefly: [3H]-colchicine competition-binding scintillation proximity assay. Particulars: SPA, 0.03-100 μM.

In the next data set the test system is WM-164 melanoma cells. Description: Microtubule imaging (immunofluorescence). The class given is cell-based, human. Particulars: WM-164 cells, 18 h. An excerpt: Primary antibody for tubulin and fluorescence-labeled secondary antibody were subsequently added to the cells. Cell nuclei were stained by DAPI. Whole Cell Stain Green was also applied to all cells. All images were acquired with an Olympus IX71 inverted fluorescence microscope (Olympus Corp., Tokyo, Japan) with overlays from separate images of tubulin (red), nuclei (blue), and whole cells (green).

Data set [17] deals with HUVEC capillary tube formation on Matrigel. Description: Capillary formation assay. Particulars: at toxic concentration. The class given is cell-based, human.
The subject of data set [18] is confluent HUVEC monolayers. Description: Endothelial monolayer permeability assay. Particulars: FITC-dextran leakage, 1, 2, 4 h.
In data set [19] the test system is HUVEC (Human Umbilical Vein Endothelial Cells). Briefly: Endothelial cell growth inhibition (SRB). The class given is cell-based. Conditions: HUVEC vs prostate cancer cells.
Setting [20] is: read-out: IC50 PC-3, SRB assay, prostate cancer PC-3.
Setting [21] is: read-out: IC50 ± SEM, PC-3, Table 21, n = 3.
Where [22] appears, read: IV, 1h and 2r […], 5Ha and 5Hc 5 mg/kg.

Read-outs that look alike come from different tables or passages of the source.

As to `COc1cc(C(=O)c2csc(-c3ccccc3)n2)cc(OC)c1OC` [1h, (2-Phenyl-thiazol-4-yl)-(3,4,5-trimethoxy-phenyl)-methanone], in data set [1], the “dose not causing greater than 10% loss of body weight” value was “up to 30 mg/kg”. The “% T/C” value was determined as 29% in the data set with PC-3 xenograft (PC-3, 5 mg/kg i.p.) and 4% in the data set with PC-3 xenograft (PC-3, 15 mg/kg i.p.). In the data set with PC-3 xenograft (PC-3 xenograft, 15 mg/kg i.p.), the “mice that lost more than 15% body weight” value was 1 of 8. Moreover, in data set [2], the “rotarod performance in words” value is given as “no significant difference”. The “inhibition of tubulin polymerization” value is on record as 90% in the data set with Bovine brain tubulin (absorbance 340 nm over 15 min) and 47% with Bovine brain tubulin (after 20 min incubation, vs vehicle). The IC50 is 29.1 ± 1.1 nM in [3] (setting [20]); 21 nM in data set [3] (read-out: IC50 in PC3, Table 16B); 21 ± 1 nM in [3] (setting [21]). Further, in data set [4], the “competition for tubulin binding sites in words” value is on record as “specifically competed with colchicine binding to tubulin”.

Consider `COc1cc(C(=O)c2csc(-c3ccc(O)cc3)n2)cc(OC)c1OC` [2l, (2-(4-Hydroxyphenyl)thiazol-4-yl)(3,4,5-trimethoxyphenyl)methanone], for which the “Resistance factor” value in data set [5] is reported as 0.4. The IC50 in data set [6] fell in the range of 76 to 116 nM. In “in vivo”, this molecule came in with an area under the curve (AUC) of 2600 ng·h/mL, a Vd of 16.5 L/kg, a clearance of 90 mL/min/kg and a half-life of 12.3 h. Besides, the “% T/C” value in the data set with PC-3 xenograft (PC-3, 50 mg/kg i.p.) is 34%. In the data set on PC-3 xenograft (Prostate (PC-3) xenograft, 50 mg/kg i.p.), the “% T/C” value amounted to 34%. Besides, in the data set on PC-3 cells [7], the concentration inducing apoptosis entry is “greater than or equal to 200 nM”. In addition, the half-maximal inhibitory concentration (IC50) in [3] (setting [20]) turned out to be 87 nM. Also, in data set [3] (setting [21]), the IC50 stood at 87 ± 5 nM.

Take `COc1cc(C(=O)c2csc(-c3ccc(CN)cc3)n2)cc(OC)c1OC.Cl` [2r, (2-(4-(Aminomethyl)phenyl)thiazol-4-yl)(3,4,5-trimethoxyphenyl)methanone hydrochloride]: in data set [8] (HCl salt, PBS), the increase of solubility entry was “over 35 fold”. The “aqueous solubility in PBS” value in data set [8] (PBS pH 7.4) is on record as “over 35 μg/mL”. Besides, the IC50 was 13 to 80 nM in [6]; 41 ± 13 nM in [9]; 13 nM in [10]; 25 nM in [11]; 34 nM in data set [12]; 38 ± 11 nM in [13]. Further, in [3] (setting [20]), the IC50 stood at 80 nM. Moreover, in data set [14], the “F, percent oral bioavailability” value worked out at 0.2%. Besides, in data set [14] (setting [22]), the “CL, systemic clearance” value came out at 22 ± 13 mL/min/kg. For the same molecule, in [14] (setting [22]), the “Vss, volume of distribution following intravenous dosing” value was found to be 0.33 ± 0.25 L/kg. The “Cmax, PO” value in data set [14] (PO, 1h, 5Ha, 5Hc 10 mg/kg, 2r 4 mg/kg) amounted to 3794 ± 1580 ng/mL.

As to `COc1cc(-c2nccc3ccc(-c4ccc5[nH]ccc5c4)cc23)cc(OC)c1OC` [6a], the EC50 in the data set with PC-3 cells [15] came to 53.4 nM. In data set [3] (read-out: IC50, PC-3, Table 7), the half-inhibitory concentration (IC50) was found to be 64.4 ± 12.2 nM.

For `c1cc2ccc(-c3ccc4[nH]ccc4c3)cc2c(-c2ccc3[nH]ccc3c2)n1` [6b, 1,7-Bis-(1H-indol-5-yl)-isoquinoline], in the data set with PC-3 cells [15], the EC50 amounted to 91.9 nM.

Take `COc1cc(C(=O)c2c[nH]c(-c3ccc(C)cc3)n2)cc(OC)c1OC` [12da, (2-(p-tolyl)-1H-imidazol-4-yl)(3,4,5-trimethoxyphenyl)methanone]: the “colchicine site binding in words” value in [16] is “highest binding affinity”. In addition, the “effect on microtubules in words” value with WM-164 melanoma cells is on record as “microtubule fragmentation”.

Consider `COc1cccc2c1C(=O)c1c(O)c3c(c(O)c1C2=O)C[C@@](O)(C(=O)CO)C[C@@H]3O[C@H]1C[C@H](N)[C@H](O)[C@H](C)O1` [doxorubicin], for which, in data set [17], the “capillary construction in words” value is listed as “did not affect the capillary construction”. Moreover, the “permeability of endothelial cell monolayer in words” value in data set [18] is on record as “did not induce any change”. The “times more active against endothelial cells than against cancer cells” value in data set [19] is recorded as “not specific to endothelial cells”.

With `CC(=O)O[C@H]1C(=O)[C@@]2(C)[C@H]([C@H](OC(=O)c3ccccc3)[C@]3(O)C[C@H](OC(=O)[C@H](O)[C@@H](NC(=O)c4ccccc4)c4ccccc4)C(C)=C1C3(C)C)[C@]1(OC(C)=O)CO[C@@H]1C[C@@H]2O` [paclitaxel, reference compound], the “colchicine site binding in words” value in data set [16] was “only a flat line”. In addition, in the data set on WM-164 melanoma cells, the “effect on microtubules in words” value is given as “condensation of microtubules”.

Source of the values: patent US11465987B2, “Compounds for treatment of cancer” (ONCTERNAL THERAPEUTICS, INC., priority 2012, dated 2022).
